Measured values reported in patent US9597314B2, “Beta-lactamylalkanoic acids for treating premenstrual disorders” (AZEVAN PHARMACEUTICALS, INC., priority 2005, dated 2017).
pIC50, pKi: −log10 of the molar value.

What was measured:
[1] = target: T1, vasopressin V1a receptor (Homo sapiens, UniProt P37288); assay: Inhibition of phosphatidylinositol turnover; type: cell-based; details: hV1a cells; for agonist or antagonist character: vasopressin-mediated turnover of phosphatidylinositol
T1 construct: host or cells: CHO cells (hV1a cell line), whole adherent cells
Text: Inhibition of phosphatidylinositol turnover. The physiological effects of vasopressin are mediated through specific G-protein coupled receptors. The vasopressin V1a receptor is coupled to the Gq/G11 family of G proteins and mediates phosphatidylinositol turnover. The agonist or antagonist character of the compounds of the invention may be determined by their ability to inhibit vasopressin-mediated turnover of phosphatidylinositol by the procedure described in the following paragraphs.
Cell culture and labeling of cells. Three days prior to the assay, near-confluent cultures of hV1a cells were dissociated and seeded in 6-well tissue culture plates, about 100 wells being seeded from each 75 cm^2 flask (equivalent to 12:1 split ratio).
Incubations. All assays were in triplicate except for basal and 10 nM AVP (both n=6). AVP ((arginine vasopressin), Peninsula Labs, Belmont, Calif., USA (#8103)) was dissolved in 0.1N acetic acid. Test agents were dissolved in DMSO and diluted in DMSO to 200 times the final test concentration. […] The order of incubations was randomized. Incubations were initiated by removing the prelabeling medium, washing the monolayer once with 1 mL of 0.9% NaCl, and transferring the contents of the assay tubes to corresponding wells. The plates were incubated for 1 hour at 37° C. Incubations were terminated by removing the incubation medium and adding 500 μL of ice cold 5% (w/v) trichloroacetic acid and allowing the wells to stand for 15 min.
Measurement of [^3H]inositol phosphates. BioRad Poly-Prep Econo-Columns were packed with 0.3 mL of AG 1 X-8 100-200 formate form resin. Resin was mixed 1:1 with water and 0.6 mL added to each column. Columns were then washed with 10 mL water. Scintillation vials (20 mL) were placed under each column. For each well, the contents were transferred to a minicolumn, after which the well was washed with 0.5 mL distilled water, which was also added to the minicolumn. The columns were then washed twice with 5 mL of 5 mM myo-inositol to elute free inositol. Aliquots (1 mL) were transferred to 20 mL scintillation vials and 10 mL of Beckman Ready Protein Plus added. After the myo-inositol wash was complete, empty scintillation vials were placed under the columns, and [^3H]inositol phosphates were eluted with three additions of 1 mL 0.5 M ammonium formate containing 0.1 N formic acid. Elution conditions were optimized to recover inositol mono-, bis-, and trisphosphates, without eluting the more metabolically inert tetrakis-, pentakis-, and hexakis-phosphates. To each sample was added 10 mL of a high salt capacity scintillation fluid such as Tru-Count High Salt Capacity or Packard Hionic-Fluor. Inositol lipids were measured by adding 1 mL of 2% sodium dodecyl sulfate (SDS) to each well, allowing the wells to stand for at least 30 min., and transferring the solution to 20 mL scintillation vials, to which 10 mL Beckman Ready Protein Plus scintillation fluid was then added. Samples were counted in a Beckman LS 3801 liquid scintillation counter for 10 min. Total inositol incorporation for each well was calculated as the sum of free inositol, inositol phosphates, and inositol lipids.
Data analysis: concentration-inhibition experiments. Concentration-response curves for AVP and concentration-inhibition curves for test agents versus 10 nM AVP were analyzed by nonlinear least-squares curve-fitting to a 4-parameter logistic function. Parameters for basal and maximal inositol phosphates, EC50 or IC50, and Hill coefficient were varied to achieve the best fit. The curve-fitting was weighted under the assumption that the standard deviation was proportional to dpm of radioactivity. Full concentration-response curves for AVP were run in each experiment, and IC50 values were converted to Ki values by application of the Cheng-Prusoff equation, based on the EC50 for AVP in the same experiment. Inositol phosphates were expressed as dpm per 10^6 dpm of total inositol incorporation.

[2] = system: AVP-induced rise in blood pressure; assay: Blood pressure pharmacology rats; type: in vivo
Text: Blood pressure pharmacology rats. […] Prior to menses, blood vessels in the uterine wall become engorged with blood. Vasopressin, acting through V1a receptors, causes constriction of both uterine and vascular smooth muscle contributing to the discomfort and pain of primary dysmenorrhea. Vasopressin is one of the endogenous factors that maintains vascular tone. Blocking the V1a receptors localized to smooth muscle may ameliorate the symptoms of primary dysmenorrhea. Elevated concentrations of vasopressin, acting through V1a receptors causes constriction of both uterine and vascular smooth muscle contributing to the discomfort and pain of primary dysmenorrhea. There are no animal models for evaluating receptor antagonists on dysmenorrhea. […]
Male rats were divided into five groups, and each group was tested with placebo, or one of four doses of one or more of the compounds described herein, such as with Example 225 at 0.16, 0.4, 1.0, and 2.5 mg/kg. Rats were treated orally with the compound and effects on blood pressure were measured 90-150 min later as follows. Under isoflurane anesthesia blood pressure was recorded through a cannula in the femoral artery. To increase systemic blood pressure AVP was administered (25 ng/kg) through a cannula in the femoral vein; the change in mean blood pressure was recorded two minutes following injection of AVP.

[3] = target: T2, V1a (Homo sapiens, UniProt P37288); assay: Human vasopression V1a receptor binding assay; parameters: host or cells: CHO cells (hV1a cell line), whole adherent cells; details: for IC50 / pKi: hV1a cell line (CHO); for IC50: 1 nM 3H-AVP, Table 17, read-out: V1a Binding Affinity (IC50 (nM)); for pKi: Table 18
In short: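 Whole CHO cells stably expressing human V1a receptor competed 1 nM 3H-AVP against 10-fold serial compound dilutions (DMSO) in pH 7.0 Hepes/BSA/DMEM buffer, 45 min at 37° C.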

[4] = system: panel of 63 other receptors; assay: Comparative binding to other receptors showing selectivity (NOVASCREEN); details: 100 nM
Text: Comparative binding to other receptors showing selectivity.

[5] = target: T2, V1a; parameters: host or cells: human subjects (in vivo); details: oral, subjects 18-35 years; cited from earlier work

T2 sequence (P37288 whole entry): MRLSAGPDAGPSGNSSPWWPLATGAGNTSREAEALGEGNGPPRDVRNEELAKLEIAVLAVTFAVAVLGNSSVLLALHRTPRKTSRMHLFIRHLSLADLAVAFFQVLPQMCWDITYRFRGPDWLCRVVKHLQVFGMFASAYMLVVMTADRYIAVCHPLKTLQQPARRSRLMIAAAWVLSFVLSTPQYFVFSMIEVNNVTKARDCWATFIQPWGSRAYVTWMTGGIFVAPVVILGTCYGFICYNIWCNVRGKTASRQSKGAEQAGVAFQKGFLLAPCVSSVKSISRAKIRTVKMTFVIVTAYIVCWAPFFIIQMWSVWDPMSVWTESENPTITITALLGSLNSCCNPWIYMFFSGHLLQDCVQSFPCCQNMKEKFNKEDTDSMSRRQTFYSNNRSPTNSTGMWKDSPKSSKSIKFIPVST
T1 sequence (P37288 whole entry): as above

Structure (SMILES)	agonist or antagonist character [1]	pKi [3]	also measured
CN(Cc1cccc(C(F)(F)F)c1)C(=O)[C@@H](CC(=O)N1CCC(N2CCCCC2)CC1)N1C(=O)[C@@H](N2C(=O)OC[C@@H]2c2ccccc2)[C@H]1/C=C/c1ccccc1 [Example 225, 2(R)-[[4-(Piperidinyl)piperidinyl]carbonylmethyl]-2-[3(S)-(4(S)-phenyloxazolidin-2-on-3-yl)-4(R)-(2-styryl)azetidin-2-on-1-yl]acetic acid N-methyl-N-(3-trifluoromethylbenzyl)amide]			pKi ([1]; from IC50 by Cheng-Prusoff equation, read-out: Ki, suppression of the action of AVP): 10.30; suppression of the action of AVP ([1]; inositol phosphates): dose-dependent suppression of the action of AVP; pIC50 ([1]; versus 10 nM AVP, inositol phosphates, read-out: IC50, suppression of the action of AVP): 8.57; inhibition of the AVP-induced rise in blood pressure ([2]; male rats, oral 0.16, 0.4, 1.0, 2.5 mg/kg, 90-150 min before AVP 25 ng/kg): dose-dependent inhibition of the AVP-induced rise in blood pressure; reduction in blood pressure as compared to vehicle and the two lower doses ([2]; rats, oral 1 and 2.5 mg/kg): significant (p<0.01) reduction in blood pressure; IC50 [3]: 1.08 nM; binding curve against [3H]-AVP ([3]; hV1a cell line, 10 fold dilutions of test compound): dose-dependent competitive binding curve; selective binding against panel of 63 other receptors [4]: bound only to the V1a vasopressin receptor
O=C(NCc1cccc(C(F)(F)F)c1)[C@@H](CC(=O)N1CCC(N2CCCCC2)CC1)N1C(=O)[C@@H](N2C(=O)OC[C@@H]2c2ccccc2)[C@H]1/C=C/c1ccccc1 [Example 133]	vasopressin V1a antagonists	8.83	
O=C(NCc1cccc(C(F)(F)F)c1)C(CCC(=O)N1CCN(CCc2ccccc2)CC1)N1C(=O)C(N2C(=O)OCC2c2ccccc2)C1C=Cc1ccccc1 (single isomer, unassigned) [Example 35]	vasopressin V1a antagonists	8.93	
O=C(NCc1cccc(C(F)(F)F)c1)[C@H](CCC(=O)N1CCC(N2CCCCC2)CC1)N1C(=O)[C@@H](N2C(=O)OC[C@@H]2c2ccccc2)[C@H]1/C=C/c1ccccc1 [Example 88]	vasopressin V1a antagonists	8.84	IC50 [3]: 2.4 nM
COc1ccc(S(=O)(=O)N2c3ccc(Cl)cc3[C@](O)(c3ccccc3Cl)[C@@H]2C(=O)N2CCC[C@H]2C(N)=O)cc1OC [SR49059]			reduction in pain across three menstrual cycles [5]: significant reduction in pain
O=C(NCc1cccc(C(F)(F)F)c1)C(CCC(=O)N1CCN(C2CCCCC2)CC1)N1C(=O)C(N2C(=O)OCC2c2ccccc2)C1C=Cc1ccccc1 (single isomer, unassigned) [Example 110]	vasopressin V1a antagonists	9.57	
O=C(NCc1cccc(C(F)(F)F)c1)[C@H](CC(=O)N1CCC(N2CCCCC2)CC1)N1C(=O)[C@@H](N2C(=O)OC[C@@H]2c2ccccc2)[C@H]1/C=C/c1ccccc1 [Example 44]	vasopressin V1a antagonists	8.72	
